Mutagenic call data for four molecules are collected here from PubChem BioAssay AID1259407 (Chemical Carcinogenesis Research Information System (CCRIS), 2018).

The series relates to CCRIS mutagenicity, Ames/micronucleus/aberration tests. Description: CCRIS mutagenicity studies.
Setting [1] is: Test System: AMES SALMONELLA TYPHIMURIUM, Strain/Indicator: TA97, Metabolic Activation: HAMSTER, LIVER, S-9, AROCLOR 1254 (10 OR 30%), Method: PREINCUBATION
Where [2] appears, read: Test System: AMES SALMONELLA TYPHIMURIUM, Strain/Indicator: TA97, Metabolic Activation: NONE, Method: PREINCUBATION
[3] abbreviates: Test System: AMES SALMONELLA TYPHIMURIUM, Strain/Indicator: TA97, Metabolic Activation: RAT, LIVER, S-9, AROCLOR 1254 (10 OR 30%), Method: PREINCUBATION
[4] abbreviates: Test System: AMES SALMONELLA TYPHIMURIUM, Strain/Indicator: TA98, Metabolic Activation: HAMSTER, LIVER, S-9, AROCLOR 1254 (10 OR 30%), Method: PREINCUBATION
Setting [5] is: Test System: AMES SALMONELLA TYPHIMURIUM, Strain/Indicator: TA98, Metabolic Activation: NONE, Method: PREINCUBATION
Setting [6] is: Test System: AMES SALMONELLA TYPHIMURIUM, Strain/Indicator: TA98, Metabolic Activation: RAT, LIVER, S-9, AROCLOR 1254 (10 OR 30%), Method: PREINCUBATION
The mark [7] stands for this setting: Test System: AMES SALMONELLA TYPHIMURIUM, Strain/Indicator: TA100, Metabolic Activation: NONE, Method: PREINCUBATION
The mark [8] stands for this setting: Test System: AMES SALMONELLA TYPHIMURIUM, Strain/Indicator: TA100, Metabolic Activation: RAT, LIVER, S-9, AROCLOR 1254 (10 OR 30%), Method: PREINCUBATION
The mark [9] stands for this setting: Test System: AMES SALMONELLA TYPHIMURIUM, Strain/Indicator: TA1535, Metabolic Activation: HAMSTER, LIVER, S-9, AROCLOR 1254 (10 OR 30%), Method: PREINCUBATION
Where [10] appears, read: Test System: AMES SALMONELLA TYPHIMURIUM, Strain/Indicator: TA1535, Metabolic Activation: NONE, Method: PREINCUBATION
Setting [11] is: Test System: AMES SALMONELLA TYPHIMURIUM, Strain/Indicator: TA1535, Metabolic Activation: RAT, LIVER, S-9, AROCLOR 1254 (10 OR 30%), Method: PREINCUBATION

Calls of active or inactive are those of the source. No rule for the calls is given here.

For `CC(=O)Nc1ccc(C)cc1`, the mutagenic call by setting is: under setting [1], “inactive; negative”; under setting [2], “inactive; negative”; under setting [3], “inactive; negative”; under setting [4], “inactive; negative”; under setting [5], “inactive; negative”; under setting [6], “inactive; negative”. Besides, the mutagenic call runs as follows: (Test System: AMES SALMONELLA TYPHIMURIUM, Strain/Indicator: TA100, Metabolic Activation: HAMSTER, LIVER, S-9, AROCLOR 1254 (10%), Method: PREINCUBATION) “inactive; negative”; (Test System: AMES SALMONELLA TYPHIMURIUM, Strain/Indicator: TA100, Metabolic Activation: HAMSTER, LIVER, S-9, AROCLOR 1254 (30%), Method: PREINCUBATION) “inactive; negative”; under setting [7], “inactive; negative”; under setting [8], “inactive; negative”; under setting [9], “inactive; negative”; under setting [10], “inactive; negative”. The mutagenic call under setting [11] was “inactive; negative”.

As for `Cc1c(C(C)C)c(=O)n(-c2ccccc2)n1C`, the mutagenic call runs as follows: (Test System: AMES SALMONELLA TYPHIMURIUM, Strain/Indicator: TA98, Metabolic Activation: GUINEA PIG, LIVER, S-9, PCB, Method: PREINCUBATION) “inactive; negative”; (Test System: AMES SALMONELLA TYPHIMURIUM, Strain/Indicator: TA98, Metabolic Activation: HAMSTER, LIVER, S-9, PCB, Method: PREINCUBATION) “inactive; negative”; (Test System: AMES SALMONELLA TYPHIMURIUM, Strain/Indicator: TA98, Metabolic Activation: MOUSE, LIVER, S-9, PCB, Method: PREINCUBATION) “inactive; negative”; under setting [5], “inactive; negative”; (Test System: AMES SALMONELLA TYPHIMURIUM, Strain/Indicator: TA98, Metabolic Activation: RAT, LIVER, S-9, PCB, Method: PREINCUBATION) “inactive; negative”; (Test System: AMES SALMONELLA TYPHIMURIUM, Strain/Indicator: TA100, Metabolic Activation: GUINEA PIG, LIVER, S-9, PCB, Method: PREINCUBATION) “inactive; negative”. For the same molecule, the mutagenic call runs as follows: (Test System: AMES SALMONELLA TYPHIMURIUM, Strain/Indicator: TA100, Metabolic Activation: HAMSTER, LIVER, S-9, PCB, Method: PREINCUBATION) “inactive; negative”; (Test System: AMES SALMONELLA TYPHIMURIUM, Strain/Indicator: TA100, Metabolic Activation: MOUSE, LIVER, S-9, PCB, Method: PREINCUBATION) “inactive; negative”; under setting [7], “inactive; negative”; (Test System: AMES SALMONELLA TYPHIMURIUM, Strain/Indicator: TA100, Metabolic Activation: RAT, LIVER, S-9, PCB, Method: PREINCUBATION) “inactive; negative”.

As for `Clc1ccc(C(c2ccc(Cl)cc2)C(Cl)(Cl)Cl)cc1`, the mutagenic call was “inactive; negative” under setting [1]; “inactive; negative” under setting [2]; “inactive; negative” under setting [3]; “inactive; negative” under setting [4]; “inactive; negative” under setting [5]; “inactive; negative” under setting [6]. Moreover, the mutagenic call is, setting by setting: (Test System: AMES SALMONELLA TYPHIMURIUM, Strain/Indicator: TA100, Metabolic Activation: HAMSTER, LIVER, S-9, AROCLOR 1254 (10 OR 30%), Method: PREINCUBATION) “inactive; negative”; under setting [7], “inactive; negative”; under setting [8], “inactive; negative”; under setting [9], “inactive; negative”; under setting [10], “inactive; negative”; under setting [11], “inactive; negative”. The mutagenic call (Test System: AMES SALMONELLA TYPHIMURIUM, Strain/Indicator: TA1537, Metabolic Activation: HAMSTER, LIVER, S-9, AROCLOR 1254 (30%), Method: PREINCUBATION) was “inactive; negative”; the mutagenic call (Test System: AMES SALMONELLA TYPHIMURIUM, Strain/Indicator: TA1537, Metabolic Activation: NONE, Method: PREINCUBATION) was “inactive; negative”; the mutagenic call (Test System: AMES SALMONELLA TYPHIMURIUM, Strain/Indicator: TA1537, Metabolic Activation: RAT, LIVER, S-9, AROCLOR 1254 (30%), Method: PREINCUBATION) was “inactive; negative”; the mutagenic call (Test System: CHINESE HAMSTER V-79, Strain/Indicator: V-79/8-AZAGUANINE, Metabolic Activation: NONE, Method: STANDARD PLATE) is “active; positive”.

For the molecule `CC(=O)OC/C=C(C)/C=C/C=C(C)/C=C/C1=C(C)CCCC1(C)C`, the mutagenic call is “inactive; negative” (Test System: AMES SALMONELLA TYPHIMURIUM, Strain/Indicator: TA97A, Metabolic Activation: NONE, Method: PREINCUBATION); “inactive; negative” (Test System: AMES SALMONELLA TYPHIMURIUM, Strain/Indicator: TA97A, Metabolic Activation: RAT, LIVER, S-9, AROCLOR 1254, Method: PREINCUBATION); “inactive; negative” (Test System: AMES SALMONELLA TYPHIMURIUM, Strain/Indicator: TA102, Metabolic Activation: NONE, Method: PREINCUBATION); “inactive; negative” (Test System: AMES SALMONELLA TYPHIMURIUM, Strain/Indicator: TA102, Metabolic Activation: RAT, LIVER, S-9, AROCLOR 1254, Method: PREINCUBATION).
